For 29 compounds, Activity and IC50 results are on record in ChEMBL document CHEMBL3856217, “A series of pyrido[2,3-b]pyrazin-3(4H)-one derivatives as aldose reductase inhibitors with antioxidant activity” (Eur J Med Chem, 2016).

Structures are written as SMILES.

Assay [1] can be described thus: Antioxidant activity assessed as DPPH free radical scavenging activity at 50 uM after 30 mins by UV-spectrophotometric method relative to control. Type of assay: functional. For orientation: The DPPH test is a chemical assay of radical scavenging.
The nature of assay [2]: Inhibition of rat lens ALR2 using D,L-glyceraldehyde as substrate preincubated for 10 mins followed by substrate addition measured for 5 mins.
The nature of assay [3]: Antioxidant activity assessed as DPPH free radical scavenging activity at 100 uM after 30 mins by UV-spectrophotometric method relative to control. Type of assay: functional.
The nature of assay [4]: Antioxidant activity assessed as DPPH free radical scavenging activity at 10 uM after 30 mins by UV-spectrophotometric method relative to control. The format is functional.

Regarding `O=C(O)Cn1c(=O)c(/C=C/c2ccc(O)cc2)nc2cc(Cl)cnc21`, the Activity in assay [1] came out at 47.5%; in assay [3], 66.2%. It took 13 nM to reach half-maximal inhibition in assay [2] (IC50).

On to `O=C(O)Cn1c(=O)c(CCc2ccc(O)cc2)nc2cccnc21`, for which, in assay [2], half-maximal inhibition (IC50) was put at 918 nM. The Activity in assay [3] came out at 35.2%.

As to `O=C(O)Cn1c(=O)c(-c2cc(O)c(O)c(O)c2)nc2cccnc21`, the Activity came to 62.4% in assay [1], 34.6% in assay [4] and 70.7% in assay [3]. Further, half-maximal inhibition in assay [2] (IC50) required 179 nM.

In turn, `O=C(O)Cn1c(=O)c(-c2ccc(O)cc2)nc2cccnc21` came in with an IC50 in assay [2] of 1030 nM. Further, the Activity in assay [3] was determined as 6.5%.

Consider `O=C(O)Cn1c(=O)c(-c2c(O)cc(O)cc2O)nc2cccnc21`, for which the Activity in assay [1] amounted to 70.9%; in assay [4], 40.2%; in assay [3], 83.5%. In assay [2], this compound returned an IC50 of 68 nM.

Take `COc1cc(/C=C/c2nc3cccnc3n(CC(=O)O)c2=O)ccc1O`: the Activity in assay [1] was 75.6%; in assay [4] it was 48.6%; in assay [3], 85.5%. The same compound came in with an IC50 in assay [2] of 307 nM.

With `COc1cc(-c2nc3cccnc3n(CC(=O)O)c2=O)cc(O)c1OC`, in assay [2], the IC50 amounted to 578 nM. For the same compound, the Activity in assay [3] worked out at 20.5%.

Regarding `COc1ccc(/C=C/c2nc3cccnc3n(CC(=O)O)c2=O)cc1`, the Activity in assay [1] amounted to 39.1%; in assay [3], 52.8%. Also, the IC50 in assay [2] was 1520 nM.

On to `O=C(O)Cn1c(=O)c(/C=C/c2ccc(O)c(O)c2)nc2cc(Cl)cnc21`, for which the values for the Activity in assay [1], in assay [4] and in assay [3] were 87.4%, 74.7% and 97.1%, respectively. This compound also came in with an IC50 in assay [2] of 36 nM.

For the compound `O=C(O)Cn1c(=O)c(/C=C/c2ccc(O)cc2)nc2cc(Br)cnc21`, the Activity in assay [1] worked out at 43.8%; in assay [3], 61.2%. In addition, the IC50 in assay [2] was 29 nM.

`O=C(O)Cn1c(=O)c(-c2ccc(O)cc2O)nc2cc(Br)cnc21` showed an IC50 in assay [2] of 24 nM. Besides, the Activity in assay [3] is 43.5%.

Regarding `O=C(O)Cn1c(=O)c(-c2ccc(O)c(O)c2)nc2cccnc21`, half-maximal inhibition in assay [2] (IC50) was put at 831 nM. Besides, in assay [3], the Activity worked out at 50.5%.

In the case of `COc1cc(/C=C/c2nc3cc(Cl)cnc3n(CC(=O)O)c2=O)ccc1O`, the values for the Activity in assay [1], in assay [4] and in assay [3] were 81.8%, 62.3% and 94.9%, respectively. This compound also came in with a concentration for half-maximal inhibition (IC50) in assay [2] of 87 nM.

As to `O=C(O)Cn1c(=O)c(/C=C/c2ccc(O)c(O)c2)nc2cccnc21`, the Activity in assay [1] amounted to 78.4%; in assay [4], 55.1%; in assay [3], 89.1%. Besides, inhibition in assay [2] was half-maximal at 165 nM (IC50).

Turning to `O=C(O)Cn1c(=O)c(-c2c(O)cc(O)cc2O)nc2cc(Cl)cnc21`, the Activity in assay [1] was 69.8%; in assay [4] it was 41.3%; in assay [3] it was 85.2%. Further, the IC50 in assay [2] was 18 nM.

Compound `O=C(O)Cn1c(=O)c(-c2ccccc2)nc2cccnc21` registered a half-inhibitory concentration (IC50) in assay [2] of 9940 nM.

Take `O=C(O)Cn1c(=O)c(/C=C/c2ccc(O)cc2)nc2cccnc21`: the Activity in assay [1] was determined as 44.5%; in assay [3] it was 57.6%. Further, 35 nM corresponded to half-maximal inhibition in assay [2] (IC50).

In the case of `O=C(O)Cn1c(=O)c(-c2ccc(O)cc2O)nc2cc(Cl)cnc21`, in assay [2], the IC50 worked out at 9 nM. For the same compound, in assay [3], the Activity came out at 41.5%.

With `O=C(O)Cn1c(=O)c(/C=C/c2ccccc2)nc2cccnc21`, the Activity in assay [1] was 64.1%; in assay [4], 35.5%; in assay [3], 78.9%. Half-maximal inhibition in assay [2] (IC50) required 895 nM.

The compound `O=C(O)Cn1c(=O)c(-c2cc(O)cc(O)c2)nc2cccnc21` showed an IC50 in assay [2] of 296 nM. In addition, in assay [3], the Activity stood at 30.3%.

In assay [2], `COc1cc(O)cc(-c2nc3cccnc3n(CC(=O)O)c2=O)c1` gave an IC50 of 5210 nM.

Turning to `COc1cc(/C=C/c2nc3cc(Br)cnc3n(CC(=O)O)c2=O)ccc1O`, the results for the Activity in assay [1], in assay [4] and in assay [3] were 75.4%, 59.6% and 90.1%, respectively. The compound further had a half-inhibitory concentration (IC50) in assay [2] of 389 nM.

Regarding `O=C(O)Cn1c(=O)c(-c2ccc(O)cc2O)nc2cccnc21`, the IC50 in assay [2] came out at 185 nM. Moreover, the Activity in assay [3] turned out to be 37.7%.

As to `Cc1c(C)c2c(c(C)c1O)CCC(C)(C(=O)O)O2` (configuration not stated), the Activity in assay [1] turned out to be 89.6%; in assay [4], 78.2%; in assay [3], 96.2%.

On to `COc1c(O)cc(-c2nc3cccnc3n(CC(=O)O)c2=O)cc1O`, for which the IC50 in assay [2] is 319 nM. Moreover, the Activity in assay [3] came to 45.6%.

`COc1ccc(-c2nc3cccnc3n(CC(=O)O)c2=O)cc1O` had a concentration for half-maximal inhibition (IC50) in assay [2] of 2210 nM. In addition, in assay [3], the Activity worked out at 32.1%.

As to `COc1cc(CCc2nc3cccnc3n(CC(=O)O)c2=O)ccc1O`, the figures for the Activity in assay [1] and in assay [3] were 25.8% and 40.1%, respectively. Inhibition in assay [2] was half-maximal at 689 nM (IC50).

On to `O=C(O)Cn1c(=O)c(/C=C/c2ccc(O)c(O)c2)nc2cc(Br)cnc21`, for which the results for the Activity in assay [1], in assay [4] and in assay [3] were 82.4%, 70.8% and 95.8%, respectively. The half-maximal inhibitory concentration (IC50) in assay [2] was 108 nM.

On to `O=C(O)Cn1c(=O)c(/C=C/c2ccc(F)cc2)nc2cccnc21`, for which the IC50 in assay [2] came to 126 nM. Further, the Activity in assay [3] was 42.7%.

A word on the IC50: it is the concentration needed to halve the response being measured. The low end stands for higher potency, the high end for lower potency.
